Test results from patent US5539123A, “Low molecular weight thiocarbamates as inhibitors of elastase, uses and method of synthesis” (University of Kentucky Research Foundation, priority 1994, dated 1996).
“And” between values parts separate entries of the source, which are not always exact repeats. Identical values can stand only once. “Also recorded” adds a separate entry of the source.

Tested on: Zymosan Induced Inflammation
Experiment: Zymosan-induced paw inflammation (arthritis) in rats, percent volume increase of the paw
Type: in vivo, rat
Conditions: for % Oedema Volume change: 3.6 × 10^-5 mg/g IP vs control
Source text: A reversible arthritic condition was induced according to known procedures for the Zymosan-induced arthritis (See J. P. Tarayre, A. Delphon, et al., Pharmacological studies in zymosan inflammation in rats and mice, I: Zymosan-induced paw edema in rat and mice, Pharmacological Research, 21, (#4) 375-384 (1989); Takuo Sato, Yoshitaka Ino, et al., Inhibitory effects of a novel synthetic protease inhibitor (FUT-175), on the paw edema in rats and Zymosan-induced compliment activation in vitro, Japan J. Pharmacol., 42,587-589 (1986); David K. Gremmell, et al., Comparative effects of drugs on four paw edema models on the rat, Agents and Actions 4, (#1) 107-116 (1979); and D. C. Keystone, et al., Zymosan-induced arthritis: A model of chronic proliferative arthritis following activation of the alternative pathway of compliment, Arthritis and Rheumatism 20 (#7) 1396-1401 (1977)).
Each rat (250 g each) was kept in a restraining cage with light ether anesthesia until the administration of the drug. The procedure involves the intramuscular (IM) injection of 1 mg of Zymosan in 50 μL (microliters) of normal saline in the pad of a hind paw of the rat. Swelling becomes evident within 20 minutes and reaches a maximum within 1.5 hours. The swelling disappears after 24 hours. In the Figures the reversal to normal size of the paw within 24 hours is not shown. The degree of swelling is measured by a water displacement method and the percent (%) of volume increase of the paw is plotted against time (see J. P. Tarayre, A. Delphon, et al., Pharmacological studies in zymosan inflammation in rats and mice. I: Zymosan-induced paw edema in rat and mice, Pharmaco-logical Research, 21, (#4) 375-384 (1989); Takuo Sato, Yoshitaka Ino, et al., Inhibitory effects of a novel synthetic protease inhibitor (FUT-175), on the paw edema in rats and Zymosan-induced compliment activation in vitro, Japan J. Pharmacol., 42, 587-589 (1986)).
Control was conducted by injecting I.P. 100 μl of propylene glycol (the vehicle) 15 min. prior to Zymosan administration. […] Data from tables 1 and 1a are plotted in FIGS. 1 and 1a respectively.
In the experimental procedure the drug [PC-16, […] (FIG. 2) or 90 μg/rat (FIG. 3)] is dissolved in 100 μL of propylene glycol and is injected IP to the rats. Fifteen minutes later the Zymosan (1mg/50 μL of normal saline) solution is injected IM into the paw of the rats. The degree of swelling is subsequently measured at various time intervals for a period of 24 hours and is reported up to 4 hours.

[1] = 3.6 × 10^-4 mg/g IP, time (min) = first number of the line

CCCCNC(=O)Sc1nnnn1-c1ccccc1 [PC-16]
% Volume Increase (3.6 × 10^-4 mg/g IP, 205 min): 3.41% | % Volume Increase, Mean of 3 experiments (3.6 × 10^-4 mg/g IP, 210 min): 3.48% | % Volume Increase, Mean of 3 experiments (3.6 × 10^-4 mg/g IP, 220 min): 3.30% | % Volume Increase (3.6 × 10^-4 mg/g IP, 225 min): 3.32% | % Volume Increase, Mean of 3 experiments (3.6 × 10^-4 mg/g IP, 230 min): 3.34% | % Volume Increase, Mean of 3 experiments (3.6 × 10^-4 mg/g IP, 240 min): 2.93% | % Volume Increase, Experiment #3 [1]: 0.00% and 1.02% and 1.55% and 2.18% and 2.75% and 3.44% and 3.50% | Volume, Experiment #3 [1]: 1.65 mL and 1.67 mL and 1.68 mL and 1.69 mL and 1.70 mL and 1.71 mL | % Oedema Volume change (10 min): 28.0% | % Oedema Volume change (20 min): -42.8% | % Oedema Volume change (30 min): -54.1% | % Oedema Volume change (40 min): -58.3% | % Oedema Volume change (50 min): -60.8% | % Oedema Volume change (60 min): -65.8% | % Oedema Volume change (65 min): -64.8% | % Oedema Volume change (70 min): -65.7% | % Oedema Volume change (80 min): -63.9% | % Oedema Volume change (95 min): -66.4% | % Oedema Volume change (100 min): -68.2% | % Oedema Volume change (105 min): -68.7% | % Oedema Volume change (115 min): -69.9% | % Oedema Volume change (120 min): -69.6% | % Oedema Volume change (130 min): -68.8% | % Oedema Volume change (135 min): -65.8% | % Oedema Volume change (145 min): -64.6% | % Oedema Volume change (150 min): -67.7% | % Oedema Volume change (160 min): -67.4% | % Oedema Volume change (175 min): -66.7% | % Oedema Volume change (190 min): -69.2% | % Oedema Volume change (200 min): -67.6% | % Oedema Volume change (205 min): -65.6% | % Oedema Volume change (210 min): -63.4% | % Oedema Volume change (220 min): -61.2% | % Oedema Volume change (225 min): -61.9% | % Oedema Volume change (240 min): -62.7% | % Volume Increase, Mean of 3 experiments (3.6 × 10^-5 mg/g IP, 0 min): 0.00% | % Volume Increase, Mean of 3 experiments (3.6 × 10^-5 mg/g IP, 10 min): 12.2% | % Volume Increase, Mean of 3 experiments (3.6 × 10^-5 mg/g IP, 20 min): 16.3% | % Volume Increase, Mean of 3 experiments (3.6 × 10^-5 mg/g IP, 30 min): 17.3% | % Volume Increase, Mean of 3 experiments (3.6 × 10^-5 mg/g IP, 40 min): 18.8% | % Volume Increase, Mean of 3 experiments (3.6 × 10^-5 mg/g IP, 50 min): 19.1% | % Volume Increase, Mean of 3 experiments (3.6 × 10^-5 mg/g IP, 60 min): 19.5% | % Volume Increase, Mean of 3 experiments (3.6 × 10^-5 mg/g IP, 65 min): 19.8% | % Volume Increase, Mean of 3 experiments (3.6 × 10^-5 mg/g IP, 70 min): 20.0% | % Volume Increase, Mean of 3 experiments (3.6 × 10^-5 mg/g IP, 80 min): 20.5% | % Volume Increase, Mean of 3 experiments (3.6 × 10^-5 mg/g IP, 95 min): 19.7% | % Volume Increase, Mean of 3 experiments (3.6 × 10^-5 mg/g IP, 100 min): 18.6% | % Volume Increase, Mean of 3 experiments (3.6 × 10^-5 mg/g IP, 105 min): 18.4% | % Volume Increase, Mean of 3 experiments (3.6 × 10^-5 mg/g IP, 115 min): 17.9% | % Volume Increase, Mean of 3 experiments (3.6 × 10^-5 mg/g IP, 120 min): 17.7% | % Volume Increase, Mean of 3 experiments (3.6 × 10^-5 mg/g IP, 130 min): 17.7% | % Volume Increase, Mean of 3 experiments (3.6 × 10^-5 mg/g IP, 135 min): 17.7% | % Volume Increase, Mean of 3 experiments (3.6 × 10^-5 mg/g IP, 145 min): 17.7% | % Volume Increase, Mean of 3 experiments (3.6 × 10^-5 mg/g IP, 150 min): 15.6% | % Volume Increase, Mean of 3 experiments (3.6 × 10^-5 mg/g IP, 160 min): 15.2% | % Volume Increase, Mean of 3 experiments (3.6 × 10^-5 mg/g IP, 175 min): 14.4% | % Volume Increase, Mean of 3 experiments (3.6 × 10^-5 mg/g IP, 190 min): 12.6% | % Volume Increase, Mean of 3 experiments (3.6 × 10^-5 mg/g IP, 200 min): 13.3% | % Volume Increase, Mean of 3 experiments (3.6 × 10^-5 mg/g IP, 205 min): 13.5% | % Volume Increase, Mean of 3 experiments (3.6 × 10^-5 mg/g IP, 210 min): 13.6% | % Volume Increase, Mean of 3 experiments (3.6 × 10^-5 mg/g IP, 220 min): 13.6% | % Volume Increase, Mean of 3 experiments (3.6 × 10^-5 mg/g IP, 225 min): 12.4% | % Volume Increase, Mean of 3 experiments (3.6 × 10^-5 mg/g IP, 240 min): 12.1% | oedema reduction of rat paw (injected prior to Zymosan, compared with control): impressive oedema reduction; also recorded: impressive reduction in edema swelling
